Measured values as given in ChEMBL document CHEMBL1201862, “PubChem BioAssay data set” (2004).
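Each compound was tested at five concentrations against cells in 96-well plates for 48 hours. Here, GI50 denotes the concentration required for 50% inhibition of growth.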 Activity calls are given as the source filed them. No stated cut-off is given here; in the data, active = GI50 up to about 1.1 µM and inactive = higher.

Tests used:
Experiment in all cases: growth of human tumour cells (NCI), 48 h
786-0 = test system: 786-0
A498 = test system: A498
A549 = test system: A549
CAKI-1 = test system: CAKI-1
EKVX = test system: EKVX
HOP-92 = test system: HOP-92
K562 = test system: K562
KM12 = test system: KM12
LOX IMVI = test system: LOX IMVI
MDA-MB-231 = test system: MDA-MB-231
NCI-H522 = test system: NCI-H522
NCI/ADR-RES = test system: NCI/ADR-RES
OVCAR-3 = test system: OVCAR-3
OVCAR-5 = test system: OVCAR-5
OVCAR-8 = test system: OVCAR-8
SF-295 = test system: SF-295
T47D = test system: T47D
U-251 = test system: U-251
UACC-257 = test system: UACC-257
UO-31 = test system: UO-31

SMILES	GI50 (786-0)	GI50 (A498)	GI50 (A549)	GI50 (CAKI-1)	GI50 (EKVX)	GI50 (HOP-92)	GI50 (K562)	GI50 (KM12)	GI50 (LOX IMVI)	GI50 (MDA-MB-231)	GI50 (NCI-H522)	GI50 (NCI/ADR-RES)	GI50 (OVCAR-3)	GI50 (OVCAR-5)	GI50 (OVCAR-8)	GI50 (SF-295)	GI50 (T47D)	GI50 (U-251)	GI50 (UACC-257)	GI50 (UO-31)
CN(C)Cc1cc(/N=N/c2ccccc2Cl)ccc1O	15.5 µM (inactive)	12.7 µM (inactive)	9.12 µM (inactive)	15.1 µM (inactive)	49.3 µM (inactive)	17.1 µM (inactive)	16.7 µM (inactive)	25.9 µM (inactive)	12.6 µM (inactive)	18.2 µM (inactive)	10.6 µM (inactive)	25.4 µM (inactive)	18 µM (inactive)	22.9 µM (inactive)	6.05 µM (inactive)	16.6 µM (inactive)	17.7 µM (inactive)	23.7 µM (inactive)	21.1 µM (inactive)	12.9 µM (inactive)
O=C(Nc1nc2ncn(CCOC(=O)c3ccccc3)c2c(=O)[nH]1)c1ccccc1	15.8 µM (inactive)	> 100 µM (inactive)	8.09 µM (inactive)	20.7 µM (inactive)	> 84.3 µM (inactive)	25.6 µM (inactive)	3.05 µM (inactive)	3.34 µM (inactive)	5.92 µM (inactive)	3.79 µM (inactive)	2.75 µM (inactive)	66.2 µM (inactive)	29.5 µM (inactive)	> 100 µM (inactive)	33.3 µM (inactive)	12.9 µM (inactive)	28.9 µM (inactive)	7.24 µM (inactive)	> 95.7 µM (inactive)	51.9 µM (inactive)
Cc1cc(C2(c3cc(C)c(O)c(C(=O)O)c3)OS(=O)(=O)c3ccccc32)cc(C(=O)O)c1O	> 100 µM (inactive)	> 100 µM (inactive)	> 100 µM (inactive)	> 100 µM (inactive)	> 100 µM (inactive)	> 100 µM (inactive)	> 100 µM (inactive)	> 100 µM (inactive)	> 100 µM (inactive)	> 100 µM (inactive)	> 100 µM (inactive)	> 100 µM (inactive)	> 100 µM (inactive)	> 100 µM (inactive)	> 100 µM (inactive)	> 100 µM (inactive)	> 100 µM (inactive)	> 100 µM (inactive)	> 100 µM (inactive)	> 100 µM (inactive)
COc1ccc(C(=O)c2ccc(-n3cc(/C=C/[N+](=O)[O-])c4ccccc43)cc2)cc1	3.52 µM (inactive)	22.4 µM (inactive)	80.4 µM (inactive)	19.1 µM (inactive)	23.6 µM (inactive)	17.9 µM (inactive)	6.53 µM (inactive)	20.7 µM (inactive)	6.55 µM (inactive)	19.3 µM (inactive)	15.4 µM (inactive)	24.3 µM (inactive)	13.6 µM (inactive)	> 76.4 µM (inactive)	20.3 µM (inactive)	47.9 µM (inactive)	2.07 µM (inactive)	11.3 µM (inactive)	10.2 µM (inactive)	19.5 µM (inactive)
O=C(Cc1nc2ccccc2[nH]c1=O)c1c[nH]c2ccccc12	13.9 µM (inactive)	14.7 µM (inactive)	10.9 µM (inactive)	20.2 µM (inactive)	29.6 µM (inactive)	23.2 µM (inactive)	6.07 µM (inactive)	5.77 µM (inactive)	13.7 µM (inactive)	19.1 µM (inactive)	14.8 µM (inactive)	8.65 µM (inactive)	14 µM (inactive)	23.6 µM (inactive)	14.1 µM (inactive)	9.04 µM (inactive)	12.2 µM (inactive)	13.7 µM (inactive)	23.8 µM (inactive)	11.9 µM (inactive)
COc1ccc(COCC[C@H](C)OC2OC(CO)C(O)C(O)C2O)cc1 (stereo not given in full)	> 100 µM (inactive)	> 100 µM (inactive)	> 100 µM (inactive)	> 100 µM (inactive)	> 100 µM (inactive)	> 100 µM (inactive)	> 100 µM (inactive)	> 100 µM (inactive)	> 100 µM (inactive)	> 100 µM (inactive)	> 100 µM (inactive)	> 100 µM (inactive)	> 100 µM (inactive)	> 100 µM (inactive)	> 100 µM (inactive)	> 100 µM (inactive)	> 100 µM (inactive)	> 100 µM (inactive)	> 100 µM (inactive)	> 100 µM (inactive)
Cc1ccc(Cc2n[nH]c(=O)n2/N=C\CC/C=N\n2c(Cc3ccc(C)cc3)n[nH]c2=O)cc1	18.5 µM (inactive)	90.4 µM (inactive)	> 100 µM (inactive)	> 100 µM (inactive)	33.7 µM (inactive)	25.1 µM (inactive)	96.8 µM (inactive)	> 100 µM (inactive)	16.9 µM (inactive)	31.3 µM (inactive)	> 100 µM (inactive)	21.1 µM (inactive)	> 100 µM (inactive)	> 100 µM (inactive)	17.8 µM (inactive)	29.9 µM (inactive)	38.6 µM (inactive)	19.2 µM (inactive)	57.4 µM (inactive)	> 100 µM (inactive)
O=C(O)c1cc2ccccc2c(S(=O)(=O)O)c1O	> 100 µM (inactive)	> 100 µM (inactive)	> 100 µM (inactive)	> 100 µM (inactive)	> 100 µM (inactive)	> 100 µM (inactive)	> 100 µM (inactive)	> 100 µM (inactive)	> 100 µM (inactive)	> 100 µM (inactive)	> 100 µM (inactive)	> 100 µM (inactive)	> 100 µM (inactive)	> 100 µM (inactive)	> 100 µM (inactive)	> 100 µM (inactive)	> 100 µM (inactive)	> 100 µM (inactive)	> 100 µM (inactive)	> 100 µM (inactive)
C=C(C)[C@@H]1CC[C@]2(C(=O)O)CC[C@]3(C)[C@H](CC[C@@H]4[C@@]5(C)CC[C@H](C(=O)/C=C/c6ccc(O)cc6)C(C)(C)[C@@H]5CC[C@]43C)[C@@H]12	4.92 µM (inactive)	5.07 µM (inactive)	9.73 µM (inactive)	2.64 µM (inactive)	2.47 µM (inactive)	11.9 µM (inactive)	3.11 µM (inactive)	3.29 µM (inactive)	3.54 µM (inactive)	6.65 µM (inactive)	3.41 µM (inactive)	3.22 µM (inactive)	3.39 µM (inactive)	11.5 µM (inactive)	4.3 µM (inactive)	6.15 µM (inactive)	4.58 µM (inactive)	2.93 µM (inactive)	3.58 µM (inactive)	5.2 µM (inactive)
CC(=O)NC1C(OCc2ccccc2)OC(CO)C(O)C1OCC(=O)N[C@@H](C)C(=O)N[C@H](CCC(=O)NCCCNc1c2ccccc2nc2cccc([N+](=O)[O-])c12)C(N)=O (stereo not given in full)	< 0.0168 µM (active)	0.0547 µM (active)	0.0245 µM (active)	0.0338 µM (active)	0.0462 µM (active)	0.0295 µM (active)	0.0229 µM (active)	0.037 µM (active)	0.0439 µM (active)	0.05 µM (active)	< 0.0111 µM (active)	0.564 µM (active)	0.0678 µM (active)	0.0718 µM (active)	0.0746 µM (active)	0.15 µM (active)	0.047 µM (active)	0.0349 µM (active)	0.0448 µM (active)	0.123 µM (active)
CCC(C)NC(=S)N/N=C(\C)c1nc2cccnc2[nH]1 (stereo not given)	13.6 µM (inactive)	57.3 µM (inactive)	14.9 µM (inactive)	4.07 µM (inactive)	6.73 µM (inactive)	7.18 µM (inactive)	2.24 µM (inactive)	15.9 µM (inactive)	10.9 µM (inactive)	6.95 µM (inactive)	7.87 µM (inactive)	16.7 µM (inactive)	3.25 µM (inactive)	13.4 µM (inactive)	4 µM (inactive)	5.53 µM (inactive)	2.1 µM (inactive)	9.14 µM (inactive)	5.79 µM (inactive)	2.32 µM (inactive)
OCC(CN1CCCCC1)(CN1CCCCC1)CN1CCCCC1	> 100 µM (inactive)	> 100 µM (inactive)	> 100 µM (inactive)	> 100 µM (inactive)	> 100 µM (inactive)	> 100 µM (inactive)	> 100 µM (inactive)	> 100 µM (inactive)	> 100 µM (inactive)	> 100 µM (inactive)	> 100 µM (inactive)	> 100 µM (inactive)	> 100 µM (inactive)	> 100 µM (inactive)	> 100 µM (inactive)	> 10 µM (inactive)	> 100 µM (inactive)	> 100 µM (inactive)	> 100 µM (inactive)	> 100 µM (inactive)
O=[N+]([O-])c1ccc(/N=N\c2c(O)ccc3ccccc23)c([N+](=O)[O-])c1	> 100 µM (inactive)	> 100 µM (inactive)	> 100 µM (inactive)	> 100 µM (inactive)	> 60.4 µM (inactive)	> 100 µM (inactive)	19.8 µM (inactive)	> 100 µM (inactive)	> 100 µM (inactive)	> 48.6 µM (inactive)	> 100 µM (inactive)	> 100 µM (inactive)	> 100 µM (inactive)	> 100 µM (inactive)	> 100 µM (inactive)	> 100 µM (inactive)	> 100 µM (inactive)	> 100 µM (inactive)	> 100 µM (inactive)	> 100 µM (inactive)
